Assay results as given in patent US20150190369A1, “QUERCETIN-3-GLUCOSIDE AND USES THEREOF” (priority 2012, published 2015).
“Also recorded” adds a separate entry of the source.

How the values were obtained:
Assay type in all cases: cell-based, human
[1] = system: LDLR mRNA; experiment: Quantitative RT-PCR for LDLR mRNA in Huh7 cells; conditions: Huh7, 24 h, 10% LPDS, 0 to 10 μM Q3G; maximum at 2 μM, relative to no Q3G
Description: At passage, Huh7 cells were routinely seeded at sub-confluence (˜10^6 cells/10-cm dish) in Dulbecco's modified Eagle's medium (DMEM) containing 10% fetal bovine serum (FBS) or LPDS (for experiments) and 50 μg/ml gentamycin. They were incubated overnight at 37° C., in a humidified 5% CO2-95% air atmosphere. Cells were treated or not with Q3G at defined concentrations and for defined lengths of time. Media were collected and centrifuged at 200 g for 5 min to sediment suspended cells; supernatants were collected and supplemented with 0.33 volumes of a 3×-concentrated PIC. Cell monolayers were rinsed with ice-cold phosphate-buffered saline (PBS); they were overlaid with […] the RIPA lysis buffer (50 mM Tris-HCl, pH 8, 150 mM NaCl, 1% NP-40, 0.5% Na-deoxycholate and 0.1% SDS) supplemented with 1× PIC. After 20 min in an ice bath, the lysates were centrifuged at 14,000 g and 4° C. for 20 min, and supernatants were collected. Conditioned media and lysates were stored at −20° C. until analysis. […]
Standard curves were established using varying amounts of purified and quantified cDNA amplicons of each mRNA. […]
Huh7 cells, hepatocyte derived cellular carcinoma cells, were incubated for 24 h in medium containing 10% lipoprotein-depleted serum (LPDS) and 0 to 10 μM Q3G. The level of LDLR mRNA was measured by quantitative real-time RT-PCR; that of the LDLR protein by semi-quantitative immunoblotting. […]

[2] = system: Huh7 cells; experiment: LDL uptake assay with bodipy-LDL; conditions: Huh7, 5 μM Q3G for 24 h
Description: Huh7 cells were seeded in 96-well black-bottom plates at 4×10^4 cells/well in 0.1 ml complete medium and allowed to attach by overnight incubation at 37° C. They were rinsed with PBS-D, overlaid with 0.1 ml of DMEM/10% LPDS and incubated at 37° C. for 24 h. After a PBS-D rinse, they were overlaid with 0.1 ml DMEM/0.5% LPDS containing or not 5 μM Q3G and incubated 37° C. for 24 h. To assay for LDL uptake ability, cells were rinsed, first with pre-warmed (37° C.) PBS-D, then with pre-warmed DMEM/0.5% LPDS. They were overlaid with 75 μl of the latter medium containing […] bodipy-LDL, and then incubated at 37° C. for 15 min or 30 min to allow LDLR-mediated endocytosis of the fluorescent lipoprotein. […] Intracellular fluorescence was measured in a SpectraMax Gemini XS fluorescence plate reader (Molecular Devices) at the excitation and emission wavelengths of 485 and 535 nm, respectively. Non-specific fluorescence was measured by incubating cells in medium containing bodipy-LDL (20 μg/ml) and a 12.5× excess of non-fluorescent LDL (250 μg/ml).
To verify this prediction, cells were incubated overnight in medium supplemented with LPDS to promote expression of the LDLR; they were then treated with 5 μM Q3G for 24 h and exposed to fluorescent bodipy-LDL for 15 or 30 min; after washing, accumulated intracellular LDL was measured by fluorescence spectrometry.

[3] = system: LDLR; experiment: Semi-quantitative immunoblotting for LDLR protein in Huh7 cell lysates
Description: At passage, Huh7 cells were routinely seeded at sub-confluence (˜10^6 cells/10-cm dish) in Dulbecco's modified Eagle's medium (DMEM) containing 10% fetal bovine serum (FBS) or LPDS (for experiments) and 50 μg/ml gentamycin. They were incubated overnight at 37° C., in a humidified 5% CO2-95% air atmosphere. Cells were treated or not with Q3G at defined concentrations and for defined lengths of time. Media were collected and centrifuged at 200 g for 5 min to sediment suspended cells; supernatants were collected and supplemented with 0.33 volumes of a 3×-concentrated PIC. Cell monolayers were rinsed with ice-cold phosphate-buffered saline (PBS); they were overlaid with […] the RIPA lysis buffer (50 mM Tris-HCl, pH 8, 150 mM NaCl, 1% NP-40, 0.5% Na-deoxycholate and 0.1% SDS) supplemented with 1× PIC. After 20 min in an ice bath, the lysates were centrifuged at 14,000 g and 4° C. for 20 min, and supernatants were collected. Conditioned media and lysates were stored at −20° C. until analysis.
Cell lysates were fractionated by SDS-PAGE and electrophoretically transferred onto a polyvinylidene fluoride membrane. The membrane was incubated with a goat antihuman LDLR, rabbit anti-PCSK9, or rabbit anti-SREBP-2 polyclonal antibody at 1:1000, 1:1500, and 1:200 dilutions, respectively, and then with a HRP-conjugated heterospecific secondary antibody against the primary Igs at a 1:2000 dilution. It was probed for HRP reaction using the Western Lightning Chemiluminescence Reagent Plus a chemiluminescence-based revelation kit. The signal was captured on X-ray film and immunoreactive bands analyzed by densitometry on a Syngene's ChemiGenius^2XE Bio Imaging System (Cambridge, Mass.) within the dynamic range of the instrument. The membrane was stripped and reprobed with the anti-β-actin monoclonal primary antibody at 1:20,000 dilution and HRP-conjugated rabbit anti-mouse IgG secondary antibody at a 1:5000 dilution. The densitometric values of β-actin bands were using for normalization of experimental samples.
Huh7 cells, hepatocyte derived cellular carcinoma cells, were incubated for 24 h in medium containing 10% lipoprotein-depleted serum (LPDS) and 0 to 10 μM Q3G. The level of LDLR mRNA was measured by quantitative real-time RT-PCR; that of the LDLR protein by semi-quantitative immunoblotting. Exposure to Q3G increased the intracellular content of LDLR mRNA in a concentration-dependent manner; the increase reached a 2× maximum at 2 μM (P<0.01, relative to no Q3G) (FIG. 3A). The content of the corresponding protein followed a similar pattern, but reached a 4× maximum at 4 μM (P<0.005) (FIG. 3B).
The kinetics of cellular accumulation of LDLR and PCSK9 at 2 μM Q3G was also examined: PCSK9 accumulation in the cells began after a 3-h lag; that of LDLR after 6-h lag (FIG. 6).
Statins induce expression of LDLR and PCSK9. […] We examined whether, at a 5 μM concentration of Q3G, simvastatin at 0.2 and 1 μM could further up regulate LDLR expression in Huh7 cells; and, inversely, whether the flavonol can reduce statin-stimulated PCSK9 secretion secreted by Huh7 cells.

Compound: O=c1c(O[C@@H]2O[C@H](CO)[C@@H](O)[C@H](O)[C@H]2O)c(-c2ccc(O)c(O)c2)oc2cc(O)cc(O)c12 [Q3G, quercetin-3-O-β-D-glucoside]
- increase of intracellular content of LDLR mRNA (maximum) [1]: 2 ×
- accumulated intracellular LDL versus untreated cells ([2]; bodipy-LDL for 15 min): 4 fold
- accumulated intracellular LDL versus untreated cells ([2]; bodipy-LDL for 30 min): 2.5 fold
- lag before LDLR accumulation in the cells ([3]; Huh7, 2 μM Q3G, time course): 6 h
- increase of LDLR protein content (maximum) ([3]; Huh7, 24 h, 10% LPDS, 0 to 10 μM Q3G, maximum at 4 μM): 4 ×
- level of cellular LDLR ([3]; Huh7, 24 h, co-treatment 5 μM Q3G with simvastatin 0.2 and 1 μM): increased cellular LDLR to the level induced by the flavonol alone
- effect of high concentrations on stimulation of LDLR expression ([3]; Huh7, 24 h, high Q3G concentrations (>20 NM), concentration-dependent): attenuated; also recorded: attenuation
